Values of other authors, collected in US20140228595A1, “PROCESSES FOR PRODUCING HEXANEDIOL (HDO), HEXAMETHYLENEDIAMINE (HMD), ADIPONITRILE (ADN), ADIPAMIDE (ADM) AND DERIVATIVES THEREOF” (BioAmber S.A.S., priority 2011, published 2014).

SMILES: O=C(O)CCCCC(=O)O [AA, adipic acid]
- pKa1 (Table 1, Run 1): 4.43
- pKa of the second acid group of AA (second acid group): 5.1
